Reference: patent US20070219208A1, “Methods for Treating Cancer” (priority 2006, published 2007)
Entries after “also recorded” stand apart in the source; their conditions may differ.

Experiments:
Format in all cases: cell-based
iNOS in MCF-7 cells = experiment: iNOS mRNA (RT-PCR) and protein (Western) levels; conditions: mevalonate 20 μM
Procedure: After treatment with statins, cells were washed with ice-cold DPBS and resuspended in 150 μl of radioimmune precipitation assay buffer (20 mM Tris-HCl, pH 7.4, 2.5 mM EDTA, 1% Triton X-100, 1% sodium deoxycholate, 1% SDS, 100 mM NaCl, 100 mM sodium fluoride) containing 1 mM sodium vanadate, 10 μg/ml aprotinin, 10 μg/ml leupeptin, and 10 μg/ml pepstatin inhibitors. Cells were homogenized by passing the suspension through a 25-gauge needle (20 strokes). The lysate was centrifuged at 750×g for 10 min at 4° C. to pellet out the nuclei. The remaining supernatant was centrifuged for 30 min at 12,000×g. Protein was determined using the Lowry method and 50 μg of the lysate was used for the Western blot analysis. Proteins were resolved using the SDS-polyacrylamide gels and blotted onto nitrocellulose membranes. Membranes were washed with TBS (140 mM NaCl, 50 mM Tris-HCl, pH 7.2) containing 0.1% Tween 20 (TBST) and 5% skim milk to block the non-specific protein binding. Membranes were incubated with 1 μg/ml rabbit anti-iNOS polyclonal antibody (Abeam, Cambridge, Mass.), mouse anti-cyclin D1 antibody, mouse anti-cyclin E antibody (BD Biosciences, San Jose, Calif.) or rabbit anti-p27 antibody (Chemicon International, Temecula, Calif.) in TBST for overnight at 4° C., washed 5 times with TBST, and then incubated with goat anti-rabbit or rabbit anti-mouse IgG-horseradish peroxidase-conjugated secondary antibody (1:5,000) for 1.5 h at room temperature. The band was detected using the ECL method (Amersham Biosciences).
Following the treatments, medium was aspirated and 1 ml of TRIzol reagent (Invitrogen) was added and total RNA was extracted using the manufacturer's protocol. Five μg of RNA was used for the first strand cDNA synthesis using a first strand cDNA synthesis kit (Amersham Biosciences). […]

[1] = system: NO2-/NO3- levels in MCF-7 cells; experiment: Nitrite and nitrate measurements by chemiluminescence (NO analyzer); conditions: with simvastatin or fluvastatin (10 μM), 40 h; mevalonate 20 μM, 1400 W 10 μM, sepiapterin 50 μM; compared to statin alone
Procedure: Briefly, following treatments, cells were washed three times with DPBS after aspirating the medium. To this, 1 ml of Hanks' balanced salt mixture containing 25 μM L-arginine was added and incubated for 30 min at 37° C. The medium was collected and centrifuged for 5 min at 5000 rpm, and 50 μl of the clear supernatant was used for nitrate and nitrite analysis. Each sample was analyzed in triplicate.

[2] = system: arginase II in MCF-7 cells; experiment: Arginase II transcript levels by RT-PCR; conditions: mevalonate 20 μM
Procedure: Following the treatments, medium was aspirated and 1 ml of TRIzol reagent (Invitrogen) was added and total RNA was extracted using the manufacturer's protocol. Five μg of RNA was used for the first strand cDNA synthesis using a first strand cDNA synthesis kit (Amersham Biosciences). Four μl of the cDNA mixture was used to amplify mRNA's of iNOS [(5′-[…]-3′, SEQ ID NO:1) and (5′-[…]-3′, SEQ ID NO:2)], arginase I [(5′-[…]-3′, SEQ ID NO:3) and (5′-[…]-3′, SEQ ID NO:4)], arginase II [(5′-[…]-3′, SEQ ID NO:5) and (5′-[…]-3′, SEQ ID NO:6)], and eNOS [(5′-[…]-3′, SEQ ID NO:7) and (5′-[…]-3′, SEQ ID NO:8)].

[3] = system: cyclin D1, cyclin E and p27 in MCF-7 cells; experiment: Cell cycle protein levels by Western analysis (cyclin D1, cyclin E, p27); conditions: 1400 W 10 μM or mevalonate 20 μM
Procedure: A (Table): The cell cycle distribution of MCF-7 cells treated with either simvastatin or fluvastatin (5-10 μM) for 40 h in the presence or 1400 W (10 μM) or mevalonate (20 μM). The cell sorting was performed by flow cytometry as described in “Materials and Methods.” B: Cells were treated with simvastatin or fluvastatin (10 μM) in the presence or absence of 1400 W (10 μM) or mevalonate (20 μM) for 40 h and cyclins D1 and E protein levels were measured by the Western analysis using the corresponding polyclonal or monoclonal antibodies. Data are representative of three separate experiments.
After treatment with statins, cells were washed with ice-cold DPBS and resuspended in 150 μl of radioimmune precipitation assay buffer (20 mM Tris-HCl, pH 7.4, 2.5 mM EDTA, 1% Triton X-100, 1% sodium deoxycholate, 1% SDS, 100 mM NaCl, 100 mM sodium fluoride) containing 1 mM sodium vanadate, 10 μg/ml aprotinin, 10 μg/ml leupeptin, and 10 μg/ml pepstatin inhibitors. Cells were homogenized by passing the suspension through a 25-gauge needle (20 strokes). The lysate was centrifuged at 750×g for 10 min at 4° C. to pellet out the nuclei. The remaining supernatant was centrifuged for 30 min at 12,000×g. Protein was determined using the Lowry method and 50 μg of the lysate was used for the Western blot analysis. […] The band was detected using the ECL method (Amersham Biosciences).

MCF-7 cells = experiment: Soft agar assay for colony formation (anchorage-independent growth); conditions: 1400 W 10 μM or mevalonate 20 μM with statin 10 μM
Procedure: Soft Agar Assay for Colony Formation:
After cells were treated with various conditions, they were seeded in six-well plates. The plates were first covered with phenol red-free MEM containing 0.6% agar and 10% FBS. The middle layer contained cells (5×10^3) in phenol red-free MEM with 0.35% agar and 10% FBS. The top layer, consisting of the medium, was added to prevent drying of the agar in the plates. The plates were incubated for 21 days, after which the plates were stained in 0.5 ml of 0.005% crystal violet for 1 h and the cultures were inspected and photographed. The colony efficiency (CE) was determined by a count of the number of colonies greater than […] in diameter, which was calculated as the average of colonies counted at 50× magnification in five individual fields manually (Liu S, et al. Oncogene, 23:1256-62, 2004).
The long-term effects of statins and the inhibitors on the proliferation and survival of MCF-7 cells were determined using clonogenic assays (Ramanathan B, et al. Cancer Res, 65:8455-60, 2005). The extent of malignancy of cells corresponds to the attainment of anchorage-independent growth (Liu S, et al. Oncogene, 23:1256-62, 2004). MCF-7 cells were treated with simvastatin or fluvastatin in the presence or absence of either 1400 W or mevalonate or sepiapterin. In separate experiments, cells were treated with either GGTI-298 or FTI-277. At the end of the treatments, approximately 5×10^3 cells were seeded onto a soft agar to determine their clonogenic efficiency after 21 days. […] In the presence of either 1400 W or mevalonate, the colony formation was restored in statin-treated cells (FIG. 6B).

Which results are given for `CC(O)(CCO)CC(=O)O` (centres unmarked) [mevalonate]?
effect on statin-induced iNOS (iNOS in MCF-7 cells): inhibited; effect on statin-induced NO / NO2-/NO3- levels [1]: inhibited; also recorded: suppressed; effect on statin-induced down-regulation of Arg II level [2]: reversed; effect on statin-induced decrease of cyclin D1 and cyclin E [3]: restored in part; colony formation in statin-treated cells in the presence of modulator (MCF-7 cells): restored
